This note sets out measurements from patent publication US11021481B2, “Substituted isoindolin-1-ones and 2,3-dihydro-1h-pyrrolo[3,4-c]pyridin-1-ones as HPK1 antagonists” (Nimbus Saturn, Inc., priority 2019, dated 2021).

Each structure is given as a SMILES string. Counter-ions that a name gives are not always drawn. Some results are limits rather than exact numbers.

HPK1, sequence (Q92918 whole entry): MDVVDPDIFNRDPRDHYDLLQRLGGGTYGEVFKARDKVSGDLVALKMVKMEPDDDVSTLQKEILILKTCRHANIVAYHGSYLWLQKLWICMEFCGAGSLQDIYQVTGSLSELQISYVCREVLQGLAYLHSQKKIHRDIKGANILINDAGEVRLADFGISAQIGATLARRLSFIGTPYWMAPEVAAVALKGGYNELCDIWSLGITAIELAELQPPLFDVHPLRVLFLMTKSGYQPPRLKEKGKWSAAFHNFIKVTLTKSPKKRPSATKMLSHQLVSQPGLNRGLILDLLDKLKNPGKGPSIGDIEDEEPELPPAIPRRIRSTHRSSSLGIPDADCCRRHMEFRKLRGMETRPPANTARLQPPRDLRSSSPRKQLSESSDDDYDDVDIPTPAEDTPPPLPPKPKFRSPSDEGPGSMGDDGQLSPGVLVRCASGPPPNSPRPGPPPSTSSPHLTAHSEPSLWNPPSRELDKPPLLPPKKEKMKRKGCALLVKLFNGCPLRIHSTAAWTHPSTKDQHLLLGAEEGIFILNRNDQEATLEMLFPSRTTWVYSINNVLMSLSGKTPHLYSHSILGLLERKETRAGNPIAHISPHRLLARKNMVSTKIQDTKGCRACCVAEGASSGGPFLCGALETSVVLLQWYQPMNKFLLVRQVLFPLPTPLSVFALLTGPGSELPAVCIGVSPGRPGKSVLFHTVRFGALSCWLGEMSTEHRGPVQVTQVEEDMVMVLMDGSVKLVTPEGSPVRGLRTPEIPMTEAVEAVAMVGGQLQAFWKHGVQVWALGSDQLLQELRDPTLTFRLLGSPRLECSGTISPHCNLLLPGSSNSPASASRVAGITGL

This test has as its target HPK1 (Homo sapiens (Human), UniProt Q92918). Nature of the test: HPK1 biochemical enzyme assay (microfluidic mobility shift assay). The note with it: 1.5 nM HPK1, ATP 1 mM final, 30 min preincubation, 60 min at RT, Caliper EZ Reader; read-out: HPK1 1000UMATP caliper IC50. Summed up: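 Ten-point compound titrations (top 3 μM final) preincubated 30 min with HPK1 and substrate, then reaction started with 1 mM ATP and 1 μM substrate, 5 mM MgCl2. After 60 min at RT, reaction terminated and product measured by microfluidic mobility shift.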
The IC50 is the point on the concentration scale where inhibition reaches its midpoint. On to `O=C1NCc2c(-c3cnc4cc(F)ccn34)ccc(Nc3ccc([C@@H]4CCOC4)c(CN4CC[C@@H](F)C4)n3)c21` (stereo in doubt) [I-742], for which the half-inhibitory concentration (IC50) was less than 100 nM.
As for `Cn1ccn2c(-c3ccc(Nc4ccc(N5CCC(O)CC5)cn4)c4c3CNC4=O)cnc2c1=O` [I-168, 3-[7-[[5-(4-hydroxy-1-piperidyl)-2-pyridyl]amino]-1-oxo-isoindolin-4-yl]-7-methyl-imidazo[1,2-a]pyrazin-8-one], the half-inhibitory concentration (IC50) is less than 100 nM.
Under `Cc1ccc2c(-c3ccc(Nc4ccc(C5CCOC5)c(CN(C)C)n4)c4c3CNC4=O)cnn2c1` (stereo in doubt) [I-732, (R)-7-((6-((dimethylamino)-methyl)-5-(tetrahydrofuran-3-yl)pyridin-2-yl)amino)-4-(6-methylpyra-zolo[1,5-a]pyridin-3-yl)isoindolin-1-one] stands less than 100 nM.
Under `Cc1ccc2c(-c3ncc(Nc4ccc(N5CCN(C)CC5)cn4)c4c3CNC4=O)c(C)[nH]c2n1` [I-17, 4-(2,6-dimethyl-1H-pyrrolo[2,3-b]pyridin-3-yl)-7-[[5-(4-methylpiperazin-1-yl)-2-pyridyl]amino]-2,3-dihydropyrrolo [3,4-c]pyridin-1-one] stands greater than 1000 nM.
For the compound `CN(C)Cc1nc(Nc2ccc(-c3cnc4cc(F)ccn34)c3c2C(=O)NC3)ccc1O[C@H]1CCOC1` [I-544, 7-[[6-[(dimethylamino)-methyl]-5-[(3S)-tetrahydrofuran-3-yl]oxy-2-pyridyl]amino]-4-(7-fluoroimidazo [1,2-a]pyridin-3-yl)isoindolin-1-one], the concentration for half-maximal inhibition (IC50) was less than 100 nM.
As for `O=C1NCc2c(-c3cnc4cc(F)ccn34)ccc(Nc3cccc(N4CCC5CNCC54)n3)c21` (stereo not shown) [I-493], the IC50 is less than 100 nM.
To `CN(C)Cc1nc(Nc2ccc(-c3cnc4cc(F)ccn34)c3c2C(=O)NC3)ccc1[C@H]1CCN(C)C(=O)C1` [I-556, (S)-7-((6-((dimethylamino)-methyl)-5-(1-methyl-2-oxopiperidin-4-yl)pyridin-2-yl)amino)-4-(7-fluoroimidazo [1,2-a]pyridin-3-yl)isoindolin-1-one] belongs less than 100 nM.
To `Cc1ccn2c(-c3ccc(Nc4ccc(N5CCN(C)CC5)cn4)c4c3CNC4=O)cnc2c1` [I-64, 4-(7-methylimidazo [1,2-a]pyridin-3-yl)-7-[[5-(4-methylpiperazin-1-yl)-2-pyridyl]amino] isoindolin-1-one] belongs less than 100 nM; to `O=C1NCc2c(-c3cnc4cc(F)ccn34)ccc(Nc3ccc([C@H]4CCOC4)c(CN4CCOCC4)n3)c21` (stereo in doubt) [I-720, (SMK7-fluoroimidazo [1,2-a]pyridin-3-yl)-7-((6-(morpholinomethyl)-5-(tetrahydrofuran-3-yl)pyridin-2-yl)amino)isoin-dolin-1-one], less than 100 nM.
For the compound `COC[C@@H]1CN(c2ccc(Nc3cnc(-c4ccnc5c4ccn5C)c4c3C(=O)NC4)nc2)CC[C@@H]1O` [I-436, 7-((5-((3S,4S)-4-hydroxy-3-(methoxymeth-yl)piperidin-1-yl)pyridin-2-yl)amino)-4-(1-methyl-1H-pyrrolo[2,3-b]pyridin-4-yl)-2,3-dihydro-1H-pyrrolo[3,4-c]pyridin-1-one], the half-inhibitory concentration (IC50) is less than 100 nM.
On to `O=C1NCc2c(-c3cccn4nccc34)ncc(Nc3ccc(N4CCC(O)CC4)cn3)c21` [I-370, 7-((5-(4-hydroxy-piperidin-1-yl)pyridin-2-yl)amino)-4-(pyrazolo[1,5-a]pyridin-4-yl)-2,3-dihydro-1H-pyrrolo[3,4-c]pyridin-1-one], for which the IC50 is 100 to 1000 nM.
As for `Cn1ccc2c(-c3ncc(Nc4ccc(N5CCC[C@H](C(C)(C)O)C5)cn4)c4c3CNC4=O)cccc21` [I-216, 7-[[5-[(3S)-3-(1-hydroxy-1-methyl-ethyl)-1-piperidyl]-2-pyridyl]-amino]-4-(1-methylindol-4-yl)-2,3-dihydropyrrolo [3,4-c]pyridin-1-one], the IC50 was less than 100 nM.
Take `O=C1NCc2c(-c3ccnc4c3ccn4C(F)F)ncc(Nc3ccc(N4CCC(O)CC4)cn3)c21` [I-200, 4-[1-(difluorometh-yl)pyrrolo[2,3-b]pyridin-4-yl]-7-[[5-(4-hydroxy-1-piperidyl)-2-pyridyl]-amino]-2,3-dihxdropyrrolo [3,4-c]pyridin-1-one]: the IC50 is less than 100 nM.
To `C[C@H]1CCn2ncc(-c3ccc(Nc4ccc(N5CCN(C)CC5)cn4)c4c3CNC4=O)c2C1` [I-264, (S)-4-(5-methyl-4,5,6,7-tetrahydropyra-zolo[1,5-a]pyridin-3-yl)-7-((5-(4-methylpiperazin-1-yl)pyridin-2-yl)amino)isoin-dolin-1-one] belongs less than 100 nM.
On to `C[C@H](c1ccc(Nc2ccc(-c3cnc4cc(F)ccn34)c3c2C(=O)NC3)nc1)N1CCOCC1` (single isomer, unassigned) [I-639], for which the IC50 was less than 100 nM.
Under `O=C1NCc2c(-c3cnc4cc(F)ccn34)ccc(Nc3ccc(N4CCC[C@@]5(CNCCO5)C4)cn3)c21` [I-507, (R)-7-((5-(1-oxa-4,8-diazaspiro[5.5]undecan-8-yl)pyridin-2-yl)amino)-4-(7-fluoroimidazo [1,2-a]pyridin-3-yl)isoindolin-1-one] stands less than 100 nM; under `COc1ccc2ncc(-c3ccc(Nc4ccc(N5CCC(O)CC5)cn4)c4c3CNC4=O)n2c1` [I-142, 7-[[5-(4-hydroxy-1-piperidyl)-2-pyridyl]amino]-4-(6-methoxy-imidazo[1,2-a]pyridin-3-yl)-isoindolin-1-one], less than 100 nM.
In the case of `O=C1NCc2c(-c3cnn4cccnc34)ccc(Nc3ccc(N4CCNCC4)cn3)c21` [I-117, 7-[(5-piperazin-1-yl-2-pyridyl)amino]-4-pyrazolo[1,5-a]pyrimidin-3-yl-isoindolin-1-one], the half-maximal inhibitory concentration (IC50) was less than 100 nM.
Turning to `CN(C)Cc1nc(Nc2ccc(-c3cnc4cc(F)ccn34)c3c2C(=O)NC3)ccc1N1CCC[C@@H](O)C1` [I-524, 7-[[6-[(dimethylamino)-methyl]-5-[(3R)-3-hydroxy-1-piperipyl]-2-pyridyl]amino]-4-(7-fluoroimidazo [1,2-a]pyridin-3-yl)isoindolin-1-one], the concentration for half-maximal inhibition (IC50) was less than 100 nM.
Under `O=C1NCc2c(-c3cnc4cc(F)ccn34)ccc(Nc3ccc(C4CCOC4)c(CN4CCOCC4)n3)c21` (stereo in doubt) [I-721, (R)-4-(7-fluoroimidazo [1,2-a]pyridin-3-yl)-7-((6-(morpliolinomethyl)-5-(tetrahydrofuran-3-yl)pyridin-2-yl)amino)isoin-dolin-1-one] stands less than 100 nM.
Regarding `C[C@H]1CN(c2ccc(Nc3ccc(-c4cnc5cc(F)ccn45)c4c3C(=O)NC4)nc2CN(C)C)CCO1` [I-529, 7-[[6-[(dimethylamino)-methyl]-5-[(2S)-2-methylmorpho-lin-4-yl]-2-pyridyl]amino]-4-(7-fluoroimidazo [1,2-a]pyridin-3-yl)isoindolin-1-one Bis formic acid salt], the half-maximal inhibitory concentration (IC50) is less than 100 nM.
`O=C1NCc2c(-c3cnc4cc(F)ccn34)ccc(Nc3cccc(O[C@@H]4CCC[C@@H]4O)n3)c21` (stereo in doubt) [I-353, 4-(7-fluoroimidazo [1,2-a]pyridin-3-yl)-7-((6-(((1S,2R)-2-hydroxycyclo-pentyl)oxy)py-ridin-2-yl)amino) isoin-dolin-1-one]: the IC50 is 100 to 1000 nM.
In the case of `CN1CC(c2cccc(Nc3cnc(-c4ccnc5c4ccn5C)c4c3C(=O)NC4)n2)C1` [I-432, 4-(1-methyl-1H-pyrrolo[2,3-b]pyridin-4-yl)-7-((6-(1-methylazetidin-3-yl)pyridin-2-yl)amino)-2,3-dihydro-1H-pyrrolo[3,4-c]pyridin-1-one], the IC50 was greater than 1000 nM.
With `O=C1NCc2c(-c3cnc4cnccn34)ccc(Nc3ccc(N4[C@@H]5CC[C@H]4C[C@@H](O)C5)cn3)c21` [I-304, 7-((5-((1R,3r,5S)-3-hydroxy-8-azabicyclo [3,2.1]octan-8-yl)pyridin-2-yl)amino)-4-(imidazo[1,2-a]pyrazin-3-yl)isoindolin-1-one], the IC50 is less than 100 nM.
`O=C1NCc2c(-c3cnc4cc(F)ccn34)ccc(Nc3ccc([C@@H]4CCOC4)c(CN4CCCC4)n3)c21` [I-516, (S)-4-(7-fluoroimidazo [1,2-a]pyridin-3-yl)-7-((6-(pyrrolidin-1-ylmethyl)-5-(tetrahydrofuran-3-yl)pyridin-2-yl)amino)isoin-dolin-1-one]: the IC50 is less than 100 nM.
Regarding `COc1cc(Nc2ccc(-c3cnc4cc(F)ccn34)c3c2C(=O)NC3)ncc1N1CCC(O)CC1` [I-372, 4-(7-fluoroimidazo [1,2-a]pyridin-3-yl)-7-((5-(4-hydroxypipendin-1-yl)-4-methoxypyridin-2-yl)amino)isoin-dolin-1-one], the IC50 was less than 100 nM.
Under `CN(C)Cc1nc(Nc2ccc(-c3cnc4cc(F)ccn34)c3c2C(=O)NC3)ccc1N1CCOC2(CC2)C1` [I-530, 7-[[6-[(dimethylamino)-methyl]-5-(4-oxa-7-azaspiro[2.5]octan-7-yl)-2-pyridyl]amino]-4-(7-fluoroimidazo [1,2-a]pyridin-3-yl)isoindolin-1-one Formic acid salt] stands less than 100 nM; under `CN(C)Cc1nc(Nc2ccc(-c3cnc4cc(F)ccn34)c3c2C(=O)NC3)ccc1N1CCOC[C@H](O)C1` (single isomer, unassigned) [I-819], less than 100 nM.
Under `CN1CC(Oc2nc(Nc3ccc(-c4cnc5cc(F)ccn45)c4c3C(=O)NC4)ccc2[C@H]2CCOC2)C1` [I-815] stands less than 100 nM; under `Cn1ccc2c(-c3ncc(Nc4cccc(N5C[C@H](CN6CCC6)CCC5=O)n4)c4c3CNC4=O)ccnc21` [I-689, (S)-7-((6-(5-(azetidin-1-ylmethyl)-2-oxopiperidin-1-yl)pyridin-2-yl)amino)-4-(1-methyl-1H-pyrrolo[2,3-b]pyridin-4-yl)-2,3-dihydro-1H-pyrrolo[3,4-c]pyridin-1-one], 100 to 1000 nM; under `CN1CCN(c2ccc(Nc3cnc(-c4cccc5c4ccn5C)c4c3C(=O)NC4)nc2)CC1` [I-251, 4-(1-methyl-1H-indol-4-yl)-7-((5-(4-methylpiperazin-1-yl)pyridin-2-yl)amino)-2,3-dihydro-1H-pyrrolo[3,4-c]pyridin-1-one], less than 100 nM.
